Assay results published in patent US12041933B1, “N-(pyrimidin-2-ylcarbamothioyl) benzamide as an eco-friendly insecticidal agent against Spodoptera littoralis (BOISD.)” (KING FAISAL UNIVERSITY, priority 2023, dated 2024).
Values after ≈ are worked out from the molar mass of the structure shown. Read-outs that look alike come from different tables or passages of the source.

Tested on: cotton leafworm, S. littoralis
Assay: Insecticidal bioassay screening (castor leaf dip), second and fourth instar larvae, laboratory strain
Assay type: in vivo
Details: for Toxicity index %: 72 hrs, Diflubenzuron's LC50/compound's LC50 × 100; for LC50: Spodoptera littoralis, foliar
Description: Five concentrations (200, 100, 50, 25, 12.5 ppm) were designed for this synthetic compound and the reference Diflubenzuron compound as the dynamic ingredients based on mg/L via diluting the commercial formulation.
In this experiment, castor leaves are immersed in each of the previously prepared concentrations of the components for 10 seconds and then left to dry for 60 minutes. Larvae of the second and fourth instars of each checked strain are prepared with treated leaves in gauze-covered glass containers for 72 hrs. An untreated control is made in which leaves are dipped in triton x-100 and distilled water only. Then the preserved leaves were removed & fresh, untreated leaves were provided for 72 hours. Three replicates (10 larvae each) were checked for each concentration. Daily inspection was carried out for all treatments and mortality percentages were recorded 3 days (72 hours) after treatment. The average mortality percentage was corrected employing Abbott's formula. The corrected mortality rate for each of the previously synthesized compounds is statistically calculated according to Finney (1970). Through this rate, the corresponding concentration test lines (LDP lines) are assessed.

[1] = 72 h, read-out: LC50 (mg/L) at 95%, 2nd instar larvae, after 72 hrs of treatment
[2] = 72 h, read-out: LC50 (mg/L) at 95%, 4th instar larvae, after 72 hrs of treatment
[3] = against Spodoptera littoralis under laboratory conditions, instar not stated

| Compound | Toxicity index % (2nd instar larvae) [%] | Toxicity index % (4th instar larvae) [%] | LC50 [1] [mg/L] | LC50 [2] [mg/L] | LC50 [3] [mg/L] | LC50 (72 h, 4th instars of larvae, after 72 hours of treatment) [mg/L] |
| --- | --- | --- | --- | --- | --- | --- |
| O=C(NC(=O)c1c(F)cccc1F)Nc1ccc(Cl)cc1 [Diflubenzuron, reference compound] | 100 | 100 | 45.2 (≈ 145 µM) | 144 (≈ 464 µM) | 45.2 (≈ 145 µM) |  |
| O=C(NC(=S)Nc1ncccn1)c1ccccc1 [Compound 3, N-(Pyrimidin-2-ylcarbamothioyl) benzamide] | 16.7 | 22.8 | ~96.8 (≈ 375 µM) | 631 (≈ 2440 µM) | 96.8 (≈ 375 µM) | ~631 (≈ 2440 µM) |
